Laboratory results from patent US20240335429A1, “MOLECULAR GLUE AND SALL4 DEGRADER” (National University of Singapore, priority 2021, published 2024).

What was measured:
[1] = target: T1, SALL4B-Nluc in H1299 cells (Homo sapiens, UniProt Q96SW2+Q9UJQ4); assay: Dual-luciferase SALL4B reporter cellular assay (main screen), Nluc/Fluc ratio; assay type: cell-based; settings: NCI-H1299, read-out: maximum degradation (Dmax) of SALL4B_Nluc
T1 construct: expressed in transfected cells
Source text: (§1) SALL4A or SALL4B was cloned into the dual-luciferase plasmid (pLL3.7-EF1a-IRES-Gateway-nluc-2xHA-IRES2-fluc-hCL1-P2A-Puro from Prof. William G. Kaelin group) to create a stable cell line (H1299, SALL4 negative) that ectopically express the SALL4A or B-NanoLuc fusion protein. SALL4A or B fused to nanoluciferase (Nluc) was expressed in a multicistronic mRNA with control firefly luciferase (Fluc). The measurement of Nluc/Fluc ratio enabled the determination of SALL4 fusion protein degradation relative to the internal Fluc control, independent of effects on transcription (FIG. 1A-B).
The assay was performed as described in Example 1 except in a 1,536-well plate which allows HTS of thermal shift hits from the primary screen, searching for SALL4 small molecule binders that can degrade the oncogenic SALL4B isoform. H1299 cells that stably express SALL4A/B_Nluc_Fluc were seeded in a 1,536-well clear bottom white plate (Corning) at 2,000 cells per well in RPMI medium (6 μL) and grown overnight (16 h) at 37° C., 5% CO2. Cells were treated with 8 μM of compounds for 6 h. Nano-Glo® Dual-Luciferase® Reporter Assay System and Pherastar plate reader were used for measuring the luciferase signal, following the manufacturer's instruction. For data analysis, the Nanoluc luminescence is normalized to firefly luciferase reading and then compared to the DMSO control. The screen was performed in triplicates.
The inventors treated H1299 cells overexpressing SALL4B_Nluc and the HCC (SNU-398, SNU-182) and NSCLC cells (H661) with increasing concentrations of QE-18-WG07 and IMiDs, and assayed the SALL4B_Nluc, as well as the endogenous SALL4A and B levels by immunoblots described in Example 4.

[2] = target: SALL4A-Nluc in H1299 cells (Homo sapiens, UniProt Q96SW2+Q9UJQ4); settings: 10 μM, H1299 cells overexpressing SALL4A-nanoluc
Source text: as §1

SNU-398 cells = assay: CellTiter-Glo viability assay, SNU-398; assay type: cell-based, human; settings: CellTiter-Glo
Experimental: Cells were plated in RPMI culture media (40 μL) in 384-well white, flat-bottom plates (Corning) and incubated at 37° C. in a humidified atmosphere of 5% CO2 overnight. The numbers of cells per well were 1,500 for SNU-398 and SNU-182, 750 for SNU-387, SNU-449, SNU-475 and SNU-423, and 1,000 for H661 and H1299. After overnight incubation, 10 μL of drug (1% DMSO in RPMI) at designed concentrations were added to the cells. The cells were then incubated for 16, 24, 48, 72, or 96 h at 37° C. in a humidified atmosphere of 5% CO2 before CellTiter-Glo reagent (10 μL) was dispensed to the wells. The cells were incubated at room temperature for a minimum of 10 min. After that, luminescence readings were recorded by a Microplate Reader (PHERAstar or Tecan Infinite M200 Pro) according to the manufacturer's instruction for measuring the luminescence.

IKZF3 = target: T2, IKZF3 (Homo sapiens, UniProt Q9UKT9); assay: Immunoblot of IKZF3 in SNU-398 HCC cells; assay type: cell-based; settings: SNU-398 cells
T2 construct: with immunoblots in SNU-398 HCC cells; endogenous in cells; host or cells: SNU-398 HCC cells
Experimental: (§2) RIPA buffer containing freshly added protease inhibitors (2 mM PMSF) and protease inhibitor cocktail was used for cell lysis. The lysed cells were incubated for 10 min on ice and subsequently centrifuged at 4° C. for 10 min at 14,000 rpm. The protein concentrations of cell lysates were assessed using Bradford Assay as per manufacturer's instructions. The samples were denatured using 4× Sample buffer at 95° C. for 5 min. The samples were size resolved using polyacrylamide gel (8%) and Mini-PROTEAN Tetra Cell module. The size-resolved proteins were transferred onto PVDF via electroblotting using Mini Trans-Blot® module. The membrane was blocked using 5% BSA in TBST. The membrane was incubated with appropriate primary antibody (overnight) and secondary antibody (1 h). Immobilon Crescendo Western HRP substrate was used for signal development and images were acquired using darkroom development techniques.

cleaved PARP = assay: Immunoblot of cleaved PARP (apoptotic marker) in SNU-398 cells; assay type: cell-based, human; settings: SNU-398 HCC cells, 24 h
Experimental: as §2

c-myc = assay: Immunoblot of c-myc (SALL4 downstream target) in SNU-398 cells; assay type: cell-based, human; settings: SNU-398 HCC cells, 24 h
Experimental: as §2

IKZF1 = target: T3, IKZF1 (Homo sapiens, UniProt Q13422); assay: Immunoblot of IKZF1 in SNU-398 HCC cells; assay type: cell-based; settings: SNU-398 cells
T3 construct: with immunoblots in SNU-398 HCC cells; endogenous in cells; host or cells: SNU-398 HCC cells
Experimental: as §2

T1 sequence (Q9UJQ4 1-616 isoform Q9UJQ4-2): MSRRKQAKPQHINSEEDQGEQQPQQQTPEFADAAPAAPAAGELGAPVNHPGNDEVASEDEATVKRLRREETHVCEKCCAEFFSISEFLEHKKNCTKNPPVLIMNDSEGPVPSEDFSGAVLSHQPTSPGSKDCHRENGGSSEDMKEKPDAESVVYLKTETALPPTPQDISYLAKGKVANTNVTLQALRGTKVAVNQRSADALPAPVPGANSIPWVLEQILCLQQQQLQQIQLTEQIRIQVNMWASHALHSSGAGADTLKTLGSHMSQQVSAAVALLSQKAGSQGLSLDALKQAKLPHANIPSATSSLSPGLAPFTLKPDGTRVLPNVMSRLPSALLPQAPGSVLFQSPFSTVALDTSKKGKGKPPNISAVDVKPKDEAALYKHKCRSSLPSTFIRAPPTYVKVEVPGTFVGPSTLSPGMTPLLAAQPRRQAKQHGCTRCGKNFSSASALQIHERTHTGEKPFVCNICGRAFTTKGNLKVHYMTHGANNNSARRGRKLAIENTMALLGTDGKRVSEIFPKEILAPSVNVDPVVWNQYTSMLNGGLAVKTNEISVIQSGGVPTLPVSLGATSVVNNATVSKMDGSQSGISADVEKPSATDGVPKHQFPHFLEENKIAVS
T1 sequence (Q96SW2 whole entry): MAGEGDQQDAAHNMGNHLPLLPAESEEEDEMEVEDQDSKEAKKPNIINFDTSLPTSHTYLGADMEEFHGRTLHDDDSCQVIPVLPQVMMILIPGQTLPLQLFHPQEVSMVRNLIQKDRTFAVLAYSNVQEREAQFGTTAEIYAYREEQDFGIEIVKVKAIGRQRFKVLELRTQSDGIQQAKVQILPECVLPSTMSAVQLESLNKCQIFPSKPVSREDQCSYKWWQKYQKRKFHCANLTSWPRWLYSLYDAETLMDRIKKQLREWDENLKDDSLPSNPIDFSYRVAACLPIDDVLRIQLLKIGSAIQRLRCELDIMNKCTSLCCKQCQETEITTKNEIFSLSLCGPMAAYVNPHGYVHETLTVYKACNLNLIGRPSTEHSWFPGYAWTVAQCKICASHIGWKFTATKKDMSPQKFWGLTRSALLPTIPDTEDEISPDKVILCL
T1 sequence (Q16531 whole entry partner): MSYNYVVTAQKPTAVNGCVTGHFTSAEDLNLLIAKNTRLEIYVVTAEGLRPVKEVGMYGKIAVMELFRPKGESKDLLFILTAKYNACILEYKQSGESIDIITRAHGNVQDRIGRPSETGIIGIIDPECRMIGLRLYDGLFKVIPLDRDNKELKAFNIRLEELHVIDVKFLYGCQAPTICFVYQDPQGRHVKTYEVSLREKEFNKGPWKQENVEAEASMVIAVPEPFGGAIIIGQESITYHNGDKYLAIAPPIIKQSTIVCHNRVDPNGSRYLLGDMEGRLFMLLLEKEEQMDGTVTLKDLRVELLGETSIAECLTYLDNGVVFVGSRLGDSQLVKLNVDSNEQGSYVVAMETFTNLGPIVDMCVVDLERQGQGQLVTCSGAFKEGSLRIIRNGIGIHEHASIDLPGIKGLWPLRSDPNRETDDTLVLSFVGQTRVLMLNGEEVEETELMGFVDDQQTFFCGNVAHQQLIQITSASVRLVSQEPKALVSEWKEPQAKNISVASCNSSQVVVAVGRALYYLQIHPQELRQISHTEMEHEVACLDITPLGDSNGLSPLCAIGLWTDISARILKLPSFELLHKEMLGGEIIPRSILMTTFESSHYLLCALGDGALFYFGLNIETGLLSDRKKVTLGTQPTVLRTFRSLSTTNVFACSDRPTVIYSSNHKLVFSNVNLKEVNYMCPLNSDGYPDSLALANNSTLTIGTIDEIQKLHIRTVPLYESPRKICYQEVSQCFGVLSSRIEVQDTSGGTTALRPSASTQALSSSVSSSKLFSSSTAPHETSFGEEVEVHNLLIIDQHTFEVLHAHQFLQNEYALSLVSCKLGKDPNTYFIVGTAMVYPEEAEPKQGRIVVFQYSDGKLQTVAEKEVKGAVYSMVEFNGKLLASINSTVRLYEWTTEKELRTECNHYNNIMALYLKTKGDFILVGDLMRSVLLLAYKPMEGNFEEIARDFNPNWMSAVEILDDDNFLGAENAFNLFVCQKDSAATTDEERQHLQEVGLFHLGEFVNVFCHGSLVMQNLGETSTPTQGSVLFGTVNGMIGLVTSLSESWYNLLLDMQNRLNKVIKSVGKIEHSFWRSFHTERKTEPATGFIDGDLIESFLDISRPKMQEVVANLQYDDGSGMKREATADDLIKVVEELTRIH
Chain of SALL4A-Nluc in H1299 cells (Q96SW2 whole entry): as the sequence (Q96SW2 whole entry) above
Chain of SALL4A-Nluc in H1299 cells (Q16531 whole entry, further chain): as the sequence (Q16531 whole entry partner) above
Chain of SALL4A-Nluc in H1299 cells (Q9UJQ4 whole entry): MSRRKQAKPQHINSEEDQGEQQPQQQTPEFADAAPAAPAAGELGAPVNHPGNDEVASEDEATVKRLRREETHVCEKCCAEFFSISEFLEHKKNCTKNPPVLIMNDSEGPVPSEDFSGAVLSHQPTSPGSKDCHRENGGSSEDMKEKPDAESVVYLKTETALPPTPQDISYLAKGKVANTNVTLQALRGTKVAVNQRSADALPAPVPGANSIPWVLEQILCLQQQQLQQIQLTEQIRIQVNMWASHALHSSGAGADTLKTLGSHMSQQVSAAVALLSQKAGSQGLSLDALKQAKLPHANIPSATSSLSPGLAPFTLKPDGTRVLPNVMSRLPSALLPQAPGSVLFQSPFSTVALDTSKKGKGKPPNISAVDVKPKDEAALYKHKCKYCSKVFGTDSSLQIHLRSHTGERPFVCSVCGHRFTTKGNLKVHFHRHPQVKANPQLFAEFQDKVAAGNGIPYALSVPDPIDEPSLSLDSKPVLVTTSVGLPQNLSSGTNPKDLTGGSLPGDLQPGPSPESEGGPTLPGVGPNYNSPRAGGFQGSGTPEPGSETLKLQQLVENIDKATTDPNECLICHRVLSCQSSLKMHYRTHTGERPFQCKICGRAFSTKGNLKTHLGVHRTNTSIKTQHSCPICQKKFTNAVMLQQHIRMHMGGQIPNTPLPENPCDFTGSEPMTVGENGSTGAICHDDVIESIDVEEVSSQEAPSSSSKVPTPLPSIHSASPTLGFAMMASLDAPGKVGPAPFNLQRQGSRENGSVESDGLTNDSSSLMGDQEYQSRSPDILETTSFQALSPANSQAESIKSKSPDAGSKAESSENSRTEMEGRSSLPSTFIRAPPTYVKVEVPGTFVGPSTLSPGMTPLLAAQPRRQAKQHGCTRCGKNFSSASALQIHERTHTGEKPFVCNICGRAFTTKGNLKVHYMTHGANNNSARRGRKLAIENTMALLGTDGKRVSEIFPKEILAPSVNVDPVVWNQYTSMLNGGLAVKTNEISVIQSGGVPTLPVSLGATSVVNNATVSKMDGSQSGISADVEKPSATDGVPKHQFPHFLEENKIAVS
T2 sequence (Q9UKT9 whole entry): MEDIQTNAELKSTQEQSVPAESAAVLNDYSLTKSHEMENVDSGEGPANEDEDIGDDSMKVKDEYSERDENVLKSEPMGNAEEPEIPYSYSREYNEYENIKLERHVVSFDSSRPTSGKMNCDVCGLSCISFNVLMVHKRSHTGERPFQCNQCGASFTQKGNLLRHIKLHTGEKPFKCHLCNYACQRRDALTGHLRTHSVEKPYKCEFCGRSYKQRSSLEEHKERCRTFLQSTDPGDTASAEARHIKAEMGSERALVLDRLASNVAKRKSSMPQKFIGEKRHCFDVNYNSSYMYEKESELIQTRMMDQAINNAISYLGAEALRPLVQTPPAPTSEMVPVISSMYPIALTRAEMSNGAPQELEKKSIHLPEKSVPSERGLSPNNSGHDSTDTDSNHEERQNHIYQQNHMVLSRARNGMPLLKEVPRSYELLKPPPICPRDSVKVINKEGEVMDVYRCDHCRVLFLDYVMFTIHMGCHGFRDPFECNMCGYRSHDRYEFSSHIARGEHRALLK
T3 sequence (Q13422 whole entry): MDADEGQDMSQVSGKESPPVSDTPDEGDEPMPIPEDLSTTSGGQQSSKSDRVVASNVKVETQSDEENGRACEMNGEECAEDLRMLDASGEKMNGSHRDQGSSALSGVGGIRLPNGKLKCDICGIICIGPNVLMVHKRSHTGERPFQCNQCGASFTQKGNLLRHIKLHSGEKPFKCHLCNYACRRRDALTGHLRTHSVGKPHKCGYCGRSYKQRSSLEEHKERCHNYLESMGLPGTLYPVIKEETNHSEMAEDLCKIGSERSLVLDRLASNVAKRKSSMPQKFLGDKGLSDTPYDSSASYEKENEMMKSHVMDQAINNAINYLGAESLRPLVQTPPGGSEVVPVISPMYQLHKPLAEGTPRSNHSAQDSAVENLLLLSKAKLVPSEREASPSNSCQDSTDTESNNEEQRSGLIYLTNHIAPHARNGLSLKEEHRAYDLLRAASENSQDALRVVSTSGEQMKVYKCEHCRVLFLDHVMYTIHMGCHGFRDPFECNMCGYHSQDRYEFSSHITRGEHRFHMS

Dmax [1] [%] | time at which inhibition of SALL4A-Nluc signal became saturated [2] [h] | Dmax (IKZF3) [%] | Dmax (IKZF1) [%] | SMILES | effect on SNU-398 cell growth (SNU-398 cells) | cleavage of PARP (apoptosis induction) (cleaved PARP) | effect on the level of c-myc (c-myc)
17 | 8 |  |  | Nc1cccc2c1C(=O)N(C1CCC(=O)NC1=O)C2=O (stereo not drawn) [Pomalidomide, reference compound] | did not result in any antiproliferative consequences |  | 
17 |  | 39 | 64 | O=C1CCC(N2C(=O)c3ccccc3C2=O)C(=O)N1 (stereo not drawn) [Thalidomide, reference compound] | did not result in any antiproliferative consequences | no cleavage of PARP observed | did not affect
